# Patent US20260200978A1, “PEPTIDE INHIBITORS OF BETA-LACTAMASE” (priority 2022, published 2026)
# Square brackets hold non-standard residues; d marks the D form. Peptide text beside a SMILES is read from it.
# Legend:
# TEM-1 β-lactamase = TEM-1 β-lactamase (Escherichia coli, UniProt P62593); assay: β-lactamase colorimetry assay (TEM-1 inhibition); format: biochemical, E. coli; conditions: for TEM-1 inhibition compared with T61-25: β-lactamase colorimetry assay
# Excerpt: The bacteria can express a β-lactamase and the antibacterial peptide can inhibit the ability of the β-lactamase to cleave a β-lactam ring. This can be measured using a beta lactamase inhibition assay like a commercially available beta lactamase inhibitor screening kit. These kits test the ability of a beta lactamase to hydrolyze a chromogenic substrate, which results in the generation of a colored product. The amount of color produced is directly proportional to the amount of beta-lactamase activity. In the presence of beta lactamase inhibitors, such as clavulanic acid or the antibacterial peptides described herein, the rate of substrate hydrolysis will decrease resulting in a decrease in the production of colored analyte. The non-peptide β-lactamase inhibitor can include clavulanate, clavulanic acid, sulbactam, taobactam, avibactam, relebacam, RG6080, or RPX7009.
# PBP2a = PBP2a (Staphylococcus aureus, UniProt P07944); assay: PBP2a colorimetry assay; format: biochemical
# PBP2a, sequence (P07944 whole entry): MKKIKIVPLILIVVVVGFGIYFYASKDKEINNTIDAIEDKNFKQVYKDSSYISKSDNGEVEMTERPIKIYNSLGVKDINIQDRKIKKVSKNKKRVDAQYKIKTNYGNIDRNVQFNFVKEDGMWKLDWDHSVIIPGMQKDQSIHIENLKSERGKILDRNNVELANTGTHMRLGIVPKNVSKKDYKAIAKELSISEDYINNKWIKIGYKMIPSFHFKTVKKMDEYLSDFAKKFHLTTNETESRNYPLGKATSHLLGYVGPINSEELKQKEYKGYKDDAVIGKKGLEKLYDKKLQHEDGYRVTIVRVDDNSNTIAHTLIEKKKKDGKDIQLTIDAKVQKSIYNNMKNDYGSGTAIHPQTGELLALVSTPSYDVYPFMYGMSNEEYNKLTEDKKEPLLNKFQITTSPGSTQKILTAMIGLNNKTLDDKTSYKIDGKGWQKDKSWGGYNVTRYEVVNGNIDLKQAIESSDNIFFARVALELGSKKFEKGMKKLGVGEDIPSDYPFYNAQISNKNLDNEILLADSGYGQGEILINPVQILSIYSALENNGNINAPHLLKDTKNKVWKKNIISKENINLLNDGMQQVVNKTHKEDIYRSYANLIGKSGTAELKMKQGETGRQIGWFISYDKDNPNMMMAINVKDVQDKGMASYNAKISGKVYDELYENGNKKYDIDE
# Excerpt: Methicillin-resistant Staphylococcus aureus (MRSA) contains the mecA gene in a mobile genetic element found in all MRSA strains, which encodes penicillin-binding protein 2a (PBP2a). PBPs are membrane-bound enzymes that catalyze the transpeptidation reaction that is necessary for cross-linkage of peptidoglycan chains for cell wall formation and targeted by β-lactam. Because of the low affinity of PBP2a for all β-lactam antibiotics, it can substitute for other PBPs under high concentrations of f-lactam antibiotics. As a result. MRSA strains are highly resistant to β-lactam antibiotics.
# [1] = 25% human serum, 0 hours and 24 hours (FIG. 1)
# SAP231 = assay: Enhancement of cefazolin killing of MRSA; format: cell-based, Staphylococcus aureus; conditions: at the test concentrations, 0 μg/ml peptide
# Protocol: FIGS. 4A and 4B are graphs showing RI-D-BP100-T61-25 combined with cefazolin and tested against both SAP231 (FIG. 4A) and NRS384 strain (FIG. 4B).
# Additionally, the peptide's potency at enhancing cefazolin killing of MRSA was also tested. Cefazolin is a cephalosporin, which are improved β-lactams developed to overcome some of the early penicillin resistance. Cefazolin is a first line therapy for the treatment of Methicillin-susceptible Staphylococcus aureus (MSSA) infections. […] RI-D-BP100-T61-25 was also combined with cefazolin and tested against both SAP231 (FIG. 4A) and NRS384 strain (FIG. 4B).
# TEM-1 β-lactamase, sequence (P62593 24-286 limits assumed): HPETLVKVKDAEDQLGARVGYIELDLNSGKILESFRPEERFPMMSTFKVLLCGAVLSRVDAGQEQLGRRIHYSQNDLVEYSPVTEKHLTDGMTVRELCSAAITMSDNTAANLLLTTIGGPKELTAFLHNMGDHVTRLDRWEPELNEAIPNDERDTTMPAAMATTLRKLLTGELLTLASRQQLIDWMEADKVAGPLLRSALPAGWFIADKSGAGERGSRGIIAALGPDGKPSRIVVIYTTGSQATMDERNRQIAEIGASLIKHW
structure (smiles),measurement,setting,value
CC(C)C[C@H](NC(=O)[C@H](Cc1ccc(O)cc1)NC(=O)[C@H](NC(=O)[C@@H](N)CCCCN)[C@H](C)O)C(=O)N[C@@H](C)C(=O)N[C@@H](CCC(N)=O)C(=O)N[C@@H](C)C(=O)N[C@@H](C)C(=O)N[C@@H](C)C(=O)N[C@H](C(=O)NCC(=O)O)[C@@H](C)O [D-T2],TEM-1 inhibition compared with T61-25,TEM-1 β-lactamase,maintained comparable levels of TEM-1 inhibition as T61-25
CC(C)C[C@@H](NC(=O)[C@@H](Cc1ccc(O)cc1)NC(=O)[C@H](NC(=O)[C@H](N)CCCCN)[C@H](C)O)C(=O)N[C@H](C)C(=O)N[C@H](CCC(N)=O)C(=O)N[C@H](C)C(=O)N[C@H](C)C(=O)N[C@H](C)C(=O)N[C@@H](C(=O)NCC(=O)O)[C@H](C)O [D-T61-25],TEM-1 inhibition compared with T61-25,TEM-1 β-lactamase,maintained comparable levels of TEM-1 inhibition as T61-25
CC(C)C[C@H](NC(=O)[C@H](Cc1ccc(O)cc1)NC(=O)[C@@H](NC(=O)[C@@H](N)CCCCN)[C@@H](C)O)C(=O)N[C@@H](C)C(=O)N[C@@H](CCC(N)=O)C(=O)N[C@@H](C)C(=O)N[C@@H](C)C(=O)N[C@@H](C)C(=O)N[C@H](C(=O)NCC(=O)O)[C@@H](C)O [Inhibitor T61-25],inhibition of PBP2a activity,PBP2a,capable of inhibiting PBP2a activity at μM range
"CC[C@@H](C)[C@@H](NC(=O)[C@@H](CC(C)C)NC(=O)[C@@H](CCCCN)NC(=O)[C@@H](Cc1ccc(O)cc1)NC(=O)[C@@H](CC(C)C)NC(=O)[C@@H](CCCCN)NC(=O)[C@H](NC(=O)[C@@H](Cc1ccc(O)cc1)NC(=O)[C@@H](CC(C)C)NC(=O)[C@@H](C)NC(=O)[C@@H](CCC(N)=O)NC(=O)[C@@H](C)NC(=O)[C@@H](C)NC(=O)[C@@H](C)NC(=O)[C@H](NC(=O)CN)[C@H](C)O)[C@H](C)O)C(=O)N[C@H](CCCCN)C(=O)N[C@H](CCCCN)C(=O)N[C@H](Cc1ccccc1)C(=O)N[C@H](CC(C)C)C(=O)N[C@H](CCCCN)C(=O)N[C@H](CCCCN)C(=O)O [RI-D-BP100-T61-25, dGdTdAdAdAdQdAdLdYdTdKdLdYdKdLdIdKdKdFdLdKdK] (H-G[dT][dA][dA][dA][dQ][dA][dL][dY][dT][dK][dL][dY][dK][dL][dI][dK][dK][dF][dL][dK][dK]-OH; N-terminus and C-terminus assumed)",serum stability,[1],better than the L-peptide BP100-T61-25
"CC(C)C[C@@H](NC(=O)[C@@H](C)NC(=O)[C@@H](CCC(N)=O)NC(=O)[C@@H](C)NC(=O)[C@@H](C)NC(=O)[C@@H](C)NC(=O)[C@H](NC(=O)CN)[C@H](C)O)C(=O)N[C@H](Cc1ccc(O)cc1)C(=O)N[C@@H](C(=O)N[C@H](CCCCN)C(=O)O)[C@H](C)O [RI-D-T61-25, dGdTdAdAdAdQdAdLdYdTdK]",Ki,TEM-1 β-lactamase,880 ± 40 nM
same,TEM-1 inhibition compared with T61-25,TEM-1 β-lactamase,maintained comparable levels of TEM-1 inhibition as T61-25
"Cc1nnc(SCC2=C(C(=O)O)N3C(=O)[C@@H](NC(=O)Cn4cnnn4)[C@H]3SC2)s1 [cefazolin, Cefazolin]",inhibition of SAP231 growth by cefazolin alone,SAP231,partially inhibited
